Reference: patent publication US10913922B2, “N-acylated methionine derivatives as food flavoring compounds” (Givaudan S.A., priority 2012, dated 2021)
Entries after “also recorded” stand apart in the source; their conditions may differ.

Legend:
[1] = Expert taster evaluation in a mango juice drink; conditions: 1 ppm in mango juice drink base (8% sucrose, 0.1% citric acid, 1% clear mango juice, mango flavour 0.05%); base alone: fruity mango
Protocol: (§1) Samples were evaluated by expert tasters. Tasters were asked to describe the samples focusing on authentic taste, mouthfeel, fullness, salty-ness, salivation, umami, sweetness, juiciness, richness, long lastingness and fattiness
Comparison in a Mango Juice Drink
Base is 8% sucrose, 0.1% citric acid, 1% clear mango juice, proprietary mango flavour @ 0.05%

[2] = Expert taster evaluation in beef bouillon; conditions: base alone: salty, umami, powdery
Protocol: as §1
Comparison in Beef Bouillon
Base is Maggi beef bouillon 1 tablet in 500 ml of hot water

[3] = Expert taster evaluation in lemon beverage; conditions: 1 ppm in lemon beverage (water, 7% sucrose, 0.15% citric acid, lemon flavor), base alone: floral, citral
Protocol: as §1
Basis water, 7% sucrose, 0.15% citric acid, proprietary lemon flavor

[4] = Expert taster evaluation in orange beverage; conditions: 1 ppm in orange beverage (water, 7% sugar, 0.1% citric acid, orange flavour 0.06%); base alone: orange, fruity, slightly candy
Protocol: as §1
Base is water, 7% sugar, 0.1% citric acid, proprietary orange flavour @ 0.06%

[5] = 1 ppm in Maggi beef bouillon (1 tablet in 500 ml hot water)

Row | Structure (SMILES) | taste description by expert tasters [1] | taste description by expert tasters [2, 5] | taste description by expert tasters [3] | taste description by expert tasters [4] | taste description by expert tasters ([2]; 25 ppb in Maggi beef bouillon) | taste description by expert tasters ([2]; 50 ppb in Maggi beef bouillon)
1 | CCCCCCCC(=O)N[C@@H](CCSC)C(=O)O [C8:0-met] | green fresh, no additional body | more salty, no additional fullness |  |  |  | 
2 | CCCCCC/C=C\CCCC(=O)NC(CCSC)C(=O)O (centres unmarked) [C12:1-met] | ripe full, more juicy, slightly metallic | more salty | fresh, slightly more citral | nice orange, fresh |  | 
3 | CCCCCCCCCCCCCCCC(=O)NC(CCSC)C(=O)O (centres unmarked) [C16:0-met] | fatty, full body, juicy, metallic | salty, full, nice salivating, lingering |  | slightly metallic, fresh |  | 
4 | CCCCCCCC/C=C\CCCCCCCC(=O)NC(CCSC)C(=O)O (centres unmarked) [C18:1-met] | sweeter, juicy, salivating | very strong salty impact and aftertaste; also recorded: very strong salty impact and aftertaste, more fatty, mouthfeel, lingering full bodied | fresh, less floral, very juicy, very authentic | very juicy fresh, authentic, juicy | more peppery, more salty | more salty, more bouillon taste
5 | CCCCC/C=C\C/C=C\CCCCCCCC(=O)NC(CCSC)C(=O)O (centres unmarked) [C18:2-met] | fresh nice juicy | salivating salty, umami |  |  |  | 
